Data from patent publication US20250281568A1, “METHOD FOR TREATING OR PREVENTING DRUG-INDUCED LIVER INJURY WITH PEPTIDE COMPOSITION” (Tunghai University, priority 2024, published 2025).

Experiments:
Assay type in all cases: in vivo
BALB/cByJNarl mice [1] = test: Analysis of stained liver tissue sections (H&E, immunohistochemical staining) of mice injected with acetaminophen; conditions: 50 mg/kg/day oral, 7 days
Procedure: (§1) After being raised under the corresponding conditions for 7 days, each group of mice was weighed and then fasted for 12 hours. After fasting, each group of mice was intraperitoneally injected with an acetaminophen solution at 300 mg/kg. 24 hours after the injection, the mice were sacrificed, and blood was collected from the mice.
The liver tissue collected from each group of mice in example 2 was sectioned and then subjected to immunohistochemical staining with hematoxylin and eosin (H&E) and with different antibodies.

[2] = Animal test: body weight and organ weights of mice; conditions: 50 mg/kg/day oral, 7 days, then acetaminophen 300 mg/kg i.p.
Procedure: as §1

BALB/cByJNarl mice [3] = test: Biochemical analysis of blood (serum) of mice injected with acetaminophen; conditions: 50 mg/kg/day oral, 7 days
Procedure: as §1
The blood collected from each group of mice in example 2 was analyzed with a commercial assay kit in order to determine the concentrations of aspartate aminotransferase (AST), alanine aminotransferase (ALT), alkaline phosphatase (ALP), C-reactive protein (CRP), interleukin-6 (IL-6), and monocyte chemoattractant protein-1 (MCP-1) in the serum of each group of mice.

BALB/cByJNarl mice [4] = test: Analysis of proteins in the liver of mice injected with acetaminophen; conditions: 50 mg/kg/day oral, 7 days; vs control group
Procedure: as §1
Livers were collected from each group of mice in example 2 and were analyzed in order to determine the concentrations of superoxidase dismutase (SOD), glutathione peroxidase (GPx), and glutathione (GSH) in the livers.

[5] = immunohistochemical staining, vs control group

## NCCC(=O)N[C@@H](Cc1cnc[nH]1)C(=O)O [carnosine]
BALB/cByJNarl mice [1]; [5]
  expression amount of 4-hydroxy-2-nonenal (4-HNE) in the liver: significantly less
  expression amount of GSH in the liver: significantly greater
  expression amount of Kelch-like ECH-associated protein 1 (Keap1) in the liver: significantly less
  expression amount of heme oxygenase 1 (HO-1) in the liver: significantly greater
  expression amount of nuclear factor erythroid 2-related factor 2 (Nrf2) in the liver: significantly greater
BALB/cByJNarl mice [1]; vs blank group
  liver cell damage (H&E-stained liver section): significantly damaged in comparison with those of the blank group
BALB/cByJNarl mice [1]; vs control group
  liver cell damage (H&E-stained liver section): damaged to a smaller extent than those of the control group
[2]; 24 hours, among the groups
  weight of heart: no significant difference in the weight of heart
[2]; vs control group
  liver weight: liver weight of the control group of mice was significantly higher than those of the other groups
BALB/cByJNarl mice [3]; vs blank group
  serum CRP concentration: not significantly different from that of the blank group
BALB/cByJNarl mice [3]; vs control group
  serum ALP concentration: significantly lower than those of the control group
  serum ALT concentration: significantly lower than those of the control group
  serum AST concentration: significantly lower than those of the control group
  serum CRP concentration: significantly lower than that of the control group
  serum IL-6 concentration: lower than that of the control group
  serum MCP-1 concentration: significantly lower than that of the control group
BALB/cByJNarl mice [4]
  liver GPx concentration: significantly higher than those of the control group
  liver GSH concentration: significantly higher than those of the control group
  liver SOD concentration: significantly higher than those of the control group
